Molecules are shown by their SMILES. Like-named read-outs stand apart in the source and are kept apart here. Where only a bound is given, the exact number is not on record here.

Data set [1] deals with T1, HIV RT (Human immunodeficiency virus type 1 group M subtype B, UniProt P04585).
T1 construct: purified HIV-1 reverse transcriptase (RT)
Nature of the data set: Inhibition of purified HIV-1 reverse transcriptase by nucleoside triphosphates (tritiated dCTP incorporation). The class given is biochemical. On the procedure: An assay was performed to determine the ability of β-D-D4FC-triphosphate to terminate polymerization catalyzed by purified HIV-1 reverse transcriptase (RT). […] The target concentration is that concentration where most mutant variants tested are suppressed by 90% or more. The concentration of 5 μM is the target plasma concentration as most, mutant variants tested were suppressed ≧90% in vitro.
(§1) Triphosphates of nucleosides were tested against pure polymerases using tritiated dCTP incorporation.

In data set [2] the target is T2, wild type HIV-RT (Human immunodeficiency virus type 1 group M subtype B, UniProt P04585).
T2 construct: The Ki value for β-D-D4FC-TP for wild type HIV-RT
Nature of the data set: Ki / Km for wild type HIV-RT. Type of data set: biochemical, HIV-1.

The target in data set [3] is DNA Pol β (Homo sapiens, UniProt P06746). Nature of the data set: Inhibition of pure DNA polymerase β by nucleoside triphosphates. The class given is biochemical. To be noted: tritiated dCTP incorporation. The procedure:
as §1

Data set [4] has as its target M184V mutant RT (Human immunodeficiency virus type 1 group M subtype B, UniProt P04585, M771V). Nature of the data set: biochemical. To be noted: read-out: Ki M184V. The class given is biochemical, HIV-1.
The target of data set [5] is T3, DNA Pol γ (Homo sapiens, UniProt P54098).
T3 sequence (P54098 1-1239): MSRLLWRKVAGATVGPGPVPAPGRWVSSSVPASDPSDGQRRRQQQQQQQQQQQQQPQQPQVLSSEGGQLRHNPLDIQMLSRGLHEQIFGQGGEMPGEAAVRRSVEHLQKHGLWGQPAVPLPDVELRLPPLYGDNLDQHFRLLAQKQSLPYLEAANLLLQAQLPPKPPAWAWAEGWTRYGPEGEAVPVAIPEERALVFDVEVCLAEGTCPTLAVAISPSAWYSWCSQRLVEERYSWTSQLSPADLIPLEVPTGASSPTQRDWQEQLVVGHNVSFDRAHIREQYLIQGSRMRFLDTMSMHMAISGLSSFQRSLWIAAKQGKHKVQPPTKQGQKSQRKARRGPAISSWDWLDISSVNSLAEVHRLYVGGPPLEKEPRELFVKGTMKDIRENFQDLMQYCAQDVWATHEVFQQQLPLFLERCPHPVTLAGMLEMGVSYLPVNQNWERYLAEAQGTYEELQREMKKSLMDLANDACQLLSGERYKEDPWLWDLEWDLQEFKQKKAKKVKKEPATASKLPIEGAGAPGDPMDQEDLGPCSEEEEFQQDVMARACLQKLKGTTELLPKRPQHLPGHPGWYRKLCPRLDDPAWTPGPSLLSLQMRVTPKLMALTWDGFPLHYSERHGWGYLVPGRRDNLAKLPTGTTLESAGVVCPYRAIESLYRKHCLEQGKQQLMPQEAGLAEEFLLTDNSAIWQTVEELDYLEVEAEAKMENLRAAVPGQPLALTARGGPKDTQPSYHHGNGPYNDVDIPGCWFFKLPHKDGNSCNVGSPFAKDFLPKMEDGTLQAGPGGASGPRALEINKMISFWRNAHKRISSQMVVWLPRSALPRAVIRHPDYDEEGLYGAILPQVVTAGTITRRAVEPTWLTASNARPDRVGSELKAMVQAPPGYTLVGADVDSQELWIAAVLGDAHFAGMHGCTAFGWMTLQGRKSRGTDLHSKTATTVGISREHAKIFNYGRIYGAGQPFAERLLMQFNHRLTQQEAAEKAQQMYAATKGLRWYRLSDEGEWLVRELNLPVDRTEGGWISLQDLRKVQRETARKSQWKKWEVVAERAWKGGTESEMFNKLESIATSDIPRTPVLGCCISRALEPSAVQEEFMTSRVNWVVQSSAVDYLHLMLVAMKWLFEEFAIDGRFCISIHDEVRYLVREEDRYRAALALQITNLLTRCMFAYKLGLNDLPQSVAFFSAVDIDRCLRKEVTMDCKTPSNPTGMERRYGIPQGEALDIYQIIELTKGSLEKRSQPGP
Nature of the data set: Inhibition of pure DNA polymerase γ by nucleoside triphosphates. Type of data set: biochemical. The settings on record: tritiated dCTP incorporation. The procedure: as §1

Data set [6] is described as follows: Intracellular phosphorylation and triphosphate half-life in PBMCs.
The nature of data set [7]: clinical. To be noted: in vivo.
The conditions of data set [8]: pbmc.
For data set [9], the system named is AZT/3TC-resistant HIV-1 recombinant viruses. Nature of the data set: microbe, parasite or virus in culture. The class given is cell-based. To be noted: Human immunodeficiency virus 1, read-out: Average IC90 for AZT/3TC-R virus. On the procedure:
A panel of 22 viruses was constructed in the HXB2 background using the Protease and RT sequences from clinical isolates to determine Virco Profiling against recombinant clinical isolates (see FIGS. 7a and 7b). Viruses contained 2 to 17 mutations in RT frequently associated with nucleoside resistance, including: M184V, M41L, D67N, T215Y. IC50 values were determined using a high through-put reporter virus assay.

For data set [10] the following is noted: human, in vivo.
The test system of data set [11] is acutely HIV-1 infected human PBM cells. Nature of the data set: Median effect / combination index study with Racivir. To be noted: Human immunodeficiency virus 1, PBMC, 120 h, Day 5, assays (1), (2), (3); for EC90: read-out: EC90. The class given is cell-based.
Data set [12] can be described thus: Comparison to other nucleosides: plasma pharmacokinetics.
Data set [13] relates to HIV viral load. Nature of the data set: Viral load decline on repeated dosing, β-D-D4FC and competing nucleosides. The class given is in vivo. To be noted: 200 to 600 mg QD, duration of dosing 14; not monotherapy, in combination with EFV & D4T.
The mark [14] stands for this setting: pure polymerase, tritiated dCTP incorporation, read-out: IC50.

`Nc1ccn([C@@H]2CS[C@H](COP(=O)(O)OP(=O)(O)OP(=O)(O)O)O2)c(=O)n1` [3TC-TP]: the IC50 (usually the concentration that gives 50% inhibition) in [1] (setting [14]) stood at 570 nM; in data set [3] it was 10.3 µM; in [5] it was 43.1 µM. The Ki – broadly, the equilibrium dissociation constant of an inhibitor or competing ligand from its target – worked out at 950 nM in data set [2] (read-out: Ki WT) and 85 µM in data set [4].
`Nc1nc(=O)n([C@H]2C=C[C@@H](COP(=O)(O)OP(=O)(O)OP(=O)(O)O)O2)cc1F` [β-D-D4FC-TP] returned an Intracellular half life in [6] of 13 to 17 h. The intracellular half-life in data set [6] is 13 to 17 h. In addition, the “extracellular concentration at which intracellular conversion to β-D-D4FC-TP plateaus” value in [6] (PHA-stimulated PBMCs) was about 10 µM. The “accumulation, % of parent” value in data set [6] (in 8-10 hours) was about 10%. Moreover, the IC50 in data set [1] (setting [14]) came to 140 nM; in data set [1] (read-out: IC50, wild type purified RT) it was 67 ± 40 nM; in data set [3] it was 1.2 µM; in data set [5] it was 0.74 µM. Also, the Ki in data set [2] (read-out: Ki WT) turned out to be 100 nM; in data set [4], 0.3 µM.
As to `O=c1[nH]cnc2c1ncn2[C@H]1CC[C@@H](CO)O1` [DDI, 2′,3′-dideoxyinosine], in [7], the peak level (Cmax) was 4.2 µM. The Intracellular half life in data set [8] is 25 to 40 h. The Ki in data set [2] lay within 80 to 8000 nM. For the same molecule, in [9], the IC90 was found to be 12.6 µM. In addition, in data set [10], the “Intracellular [Nuc-PPP] in patients” value is under 0.5 µM. In data set [11] (read-out: EC50), the EC50 (in general, the concentration at which the effect is half-maximal) turned out to be 380 nM. Also, the EC90 (usually the point of the concentration-response curve where the effect stands at 90%) in data set [11] is 2200 nM. In addition, the half-life (commonly how long it takes for the measured level to halve) in data set [12] was 90 min.
As to `Nc1nc(=O)n(C2CSC(CO)O2)cc1F` (stereo not shown) [Racivir, reference compound], the “Viral Load Decline (log)” value in [13] was −2.02 to −2.43 log. Moreover, the EC90 in [11] was 170 nM.

(Values after patent publication US20050244490A1, “Dosing methods for beta-D-2',3'-dideoxy-2',3'-didehydro-5-fluorocytidine antiviral therapy” (priority 2003, published 2005).)
